Data taken from US11524938B2, “Aromatic sulfonamide derivatives” (Bayer Pharma Aktiengesellschaft, priority 2016, dated 2022).
pIC50: −log10 of the molar value.

Biological target: T1, human P2X4 (Homo sapiens, UniProt Q99571)
T1 sequence (Q99571 1-388): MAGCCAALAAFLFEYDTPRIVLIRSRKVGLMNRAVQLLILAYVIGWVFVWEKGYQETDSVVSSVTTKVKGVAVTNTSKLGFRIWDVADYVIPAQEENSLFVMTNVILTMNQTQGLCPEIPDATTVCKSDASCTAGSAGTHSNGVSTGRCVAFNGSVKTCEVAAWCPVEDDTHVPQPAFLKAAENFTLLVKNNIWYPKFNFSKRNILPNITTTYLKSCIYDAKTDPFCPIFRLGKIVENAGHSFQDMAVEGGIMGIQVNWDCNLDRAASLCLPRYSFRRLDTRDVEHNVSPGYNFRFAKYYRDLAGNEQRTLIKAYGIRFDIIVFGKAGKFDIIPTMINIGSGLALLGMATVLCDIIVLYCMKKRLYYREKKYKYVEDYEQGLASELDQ
Assay: Human P2X4 HEK Cell FLIPR Assay
Assay type: cell-based
Details: agonist Bz-ATP at EC80; for Emax: HEK293, HEK293 cells, percentage of maximal inhibition, read-out: Human P2X4 HEK Cells (FLIPR Assay) avg Efficacy [%]; for pIC50: HEK293 cells, individual values listed where some fall outside detection range
Outline: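 Calcium flux read by FLIPR for 120 sec after Bz-ATP challenge at EC80 (established each assay day), following 30 min room-temperature compound preincubation in dye-loaded stable human P2X4 HEK293 cells. Peak RFU over basal normalized to agonist control; IC50, maximal inhibition and Hill coefficient from triplicate means.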

| Structure (SMILES) | Emax [%] | pIC50 |
| --- | --- | --- |
| NS(=O)(=O)c1cc(NC(=O)Cc2ccccc2OC(F)(F)F)ccc1-n1cc(F)cn1 [Example 160, N-[4-(4-Fluoro-1H-pyrazol-1-yl)-3-sulfamoylphenyl]-2-[2-(trifluoromethoxy)phenyl]-acetamide] | 89 | 7.24 |
| NS(=O)(=O)c1cc(NC(=O)Cc2cc(F)c(F)cc2Cl)ccc1-n1cc(F)cn1 [Example 161, 2-(2-Chloro-4,5-difluorophenyl)-N-[4-(4-fluoro-1H-pyrazol-1-yl)-3-sulfamoylphenyl]] | 43 | < 4.60 |
| NS(=O)(=O)c1cc(NC(=O)Cc2cccc(C(F)(F)F)c2Cl)ccc1-n1cc(F)cn1 [Example 162, 2-[2-Chloro-3-(trifluoromethyl)phenyl]-N-[4-(4-fluoro-1H-pyrazol-1-yl)-3-sulfamoyl-phenyl]acetamide] | 92 | 7.72 |
| NS(=O)(=O)c1cc(NC(=O)Cc2cc(Cl)ccc2Cl)ccc1-n1cc(F)cn1 [Example 163, 2-(2,5-Dichlorophenyl)-N-[4-(4-fluoro-1H-pyrazol-1-yl)-3-sulfamoylphenyl]acetamide] | 89 | 7.03 |
| NS(=O)(=O)c1cc(NC(=O)Cc2c(F)ccc(F)c2Cl)ccc1-n1cc(F)cn1 [Example 164, 2-(2-Chloro-3,6-difluorophenyl)-N-[4-(4-fluoro-1H-pyrazol-1-yl)-3-sulfamoylphenyl]-acetamide] | 83 | 7.57 |
| Cc1ccc(Cl)c(CC(=O)Nc2ccc(-n3cc(F)cn3)c(S(N)(=O)=O)c2)c1 [Example 165, 2-(2-Chloro-5-methylphenyl)-N-[4-(4-fluoro-1H-pyrazol-1-yl)-3-sulfamoylphenyl]-acetamide] | 93 | 7.38 |
| Cc1cc(F)c(Br)cc1CC(=O)Nc1ccc(-n2cc(F)cn2)c(S(N)(=O)=O)c1 [Example 166, 2-(5-Bromo-4-fluoro-2-methylphenyl)-N-[4-(4-fluoro-1H-pyrazol-1-yl)-3-sulfamoylphenyl]acetamide] | 78 | 5.82 |
| CC(C)c1ccccc1CC(=O)Nc1ccc(-n2cc(F)cn2)c(S(N)(=O)=O)c1 [Example 167, N-[4-(4-Fluoro-1H-pyrazol-1-yl)-3-sulfamoylphenyl]-2-(2-isopropylphenyl)acetamide] | 94 | 7.19 |
| NS(=O)(=O)c1cc(NC(=O)Cc2cc(F)ccc2Cl)ccc1-n1cc(F)cn1 [Example 168, 2-(2-Chloro-5-fluorophenyl)-N-[4-(4-fluoro-1H-pyrazol-1-yl)-3-sulfamoylphenyl]-acetamide] | 75 | 7.15 |
| NS(=O)(=O)c1cc(NC(=O)Cc2c(Cl)cccc2C(F)(F)F)ccc1-n1cc(F)cn1 [Example 169, 2-[2-Chloro-6-(trifluoromethyl)phenyl]-N-[4-(4-fluoro-1H-pyrazol-1-yl)-3-sulfamoyl-phenyl]acetamide] | 86 | 7.07 |
| CC(C(=O)Nc1ccc(-n2cc(F)cn2)c(S(N)(=O)=O)c1)c1c(F)cccc1F (stereo not drawn) [Example 171, 2-(2,6-Difluorophenyl)-N-[4-(4-fluoro-1H-pyrazol-1-yl)-3-sulfamoylphenyl]-propanamide] | 90 | 5.65 |
| Cc1ccc(CC(=O)Nc2ccc(-n3cc(Cl)cn3)c(S(N)(=O)=O)c2)cc1 [Example 172, N-[4-(4-Chloro-1H-pyrazol-1-yl)-3-sulfamoylphenyl]-2-(4-methylphenyl)acetamide] | 58 | 7.32 |
| Cc1ccccc1CC(=O)Nc1ccc(-n2cc(Cl)cn2)c(S(N)(=O)=O)c1 [Example 173, N-[4-(4-Chloro-1H-pyrazol-1-yl)-3-sulfamoylphenyl]-2-(2-methylphenyl)acetamide] | 80 | 7.55 |
| Cc1cccc(CC(=O)Nc2ccc(-n3cc(Cl)cn3)c(S(N)(=O)=O)c2)c1 [Example 174, N-[4-(4-Chloro-1H-pyrazol-1-yl)-3-sulfamoylphenyl]-2-(3-methylphenyl)acetamide] | 79 | 7.35 |
| CCOc1ccccc1CC(=O)Nc1ccc(-n2cc(Cl)cn2)c(S(N)(=O)=O)c1 [Example 175, N-[4-(4-Chloro-1H-pyrazol-1-yl)-3-sulfamoylphenyl]-2-(2-ethoxyphenyl)acetamide] | 88 | 6.65 |
| CCOc1ccccc1CC(=O)Nc1ccc(-n2cc(C(F)(F)F)cn2)c(S(N)(=O)=O)c1 [Example 176, 2-(2-Ethoxyphenyl)-N-{3-sulfamoyl-4-[4-(trifluoromethyl)-1H-pyrazol-1-yl]phenyl}acetamide] | 71 | 6.57 |
| NS(=O)(=O)c1cc(NC(=O)Cc2ccccc2Br)ccc1-n1cc(F)cn1 [Example 177, 2-(2-Bromophenyl)-N-[4-(4-fluoro-1H-pyrazol-1-yl)-3-sulfamoylphenyl]acetamide] | 83 | 7.46 |

| Structure (SMILES) | Emax [%] | pIC50 |
| --- | --- | --- |
| NS(=O)(=O)c1cc(NC(=O)Cc2ccc(Cl)cc2Cl)ccc1-n1cc(F)cn1 [Example 178, 2-(2,4-Dichlorophenyl)-N-[4-(4-fluoro-1H-pyrazol-1-yl)-3-sulfamoylphenyl]acetamide] | 70 | 7.40 |
| NS(=O)(=O)c1cc(NC(=O)Cc2c(Cl)cccc2Cl)ccc1-n1cc(F)cn1 [Example 179, 2-(2,6-Dichlorophenyl)-N-[4-(4-fluoro-1H-pyrazol-1-yl)-3-sulfamoylphenyl]acetamide] | 89 | 7.46 |
| N#Cc1cnn(-c2ccc(NC(=O)Cc3ccccc3[N+](=O)[O-])cc2S(N)(=O)=O)c1 [Example 180, N-[4-(4-Cyano-1H-pyrazol-1-yl)-3-sulfamoylphenyl]-2-(2-nitrophenyl)acetamide] | 77 | 6.50 |
| N#Cc1cnn(-c2ccc(NC(=O)Cc3ccc(Cl)cc3)cc2S(N)(=O)=O)c1 [Example 181, 2-(4-Chlorophenyl)-N-[4-(4-cyano-1H-pyrazol-1-yl)-3-sulfamoylphenyl]acetamide] | 59 | 6.75 |
| COc1ccccc1CC(=O)Nc1ccc(-n2cc(C#N)cn2)c(S(N)(=O)=O)c1 [Example 182, N-[4-(4-Cyano-1H-pyrazol-1-yl)-3-sulfamoylphenyl]-2-(2-methoxyphenyl)acetamide] | 89 | 6.79 |
| N#Cc1cnn(-c2ccc(NC(=O)Cc3c(F)cccc3Cl)cc2S(N)(=O)=O)c1 [Example 183, 2-(2-Chloro-6-fluorophenyl)-N-[4-(4-cyano-1H-pyrazol-1-yl)-3-sulfamoylphenyl]-acetamide] | 96 | 7.41 |
| N#Cc1cnn(-c2ccc(NC(=O)Cc3ccccc3C(F)(F)F)cc2S(N)(=O)=O)c1 [Example 184, N-[4-(4-Cyano-1H-pyrazol-1-yl)-3-sulfamoylphenyl]-2-[2-(trifluoromethyl)-phenyl]acetamide] | 96 | 7.17 |
| N#Cc1cnn(-c2ccc(NC(=O)Cc3cccc(F)c3)cc2S(N)(=O)=O)c1 [Example 185, N-[4-(4-Cyano-1H-pyrazol-1-yl)-3-sulfamoylphenyl]-2-(3-fluorophenyl)acetamide] | 71 | 6.61 |
| N#Cc1cnn(-c2ccc(NC(=O)Cc3ccc(Cl)cc3Cl)cc2S(N)(=O)=O)c1 [Example 186, N-[4-(4-Cyano-1H-pyrazol-1-yl)-3-sulfamoylphenyl]-2-(2,4-dichlorophenyl)acetamide] | 78 | 7.40 |
| N#Cc1cnn(-c2ccc(NC(=O)Cc3c(Cl)cccc3Cl)cc2S(N)(=O)=O)c1 [Example 187, N-[4-(4-Cyano-1H-pyrazol-1-yl)-3-sulfamoylphenyl]-2-(2,6-dichlorophenyl)acetamide] | 84 | 7.48 |
| N#Cc1cnn(-c2ccc(NC(=O)Cc3ccccc3Br)cc2S(N)(=O)=O)c1 [Example 188, 2-(2-Bromophenyl)-N-[4-(4-cyano-1H-pyrazol-1-yl)-3-sulfamoylphenyl]acetamide] | 89 | 7.51 |
| N#Cc1cnn(-c2ccc(NC(=O)Cc3ccc(F)c(F)c3)cc2S(N)(=O)=O)c1 [Example 189, N-[4-(4-Cyano-1H-pyrazol-1-yl)-3-sulfamoylphenyl]-2-(3,4-difluorophenyl)acetamide] | 60 | 6.70 |
| N#Cc1cnn(-c2ccc(NC(=O)Cc3cc(F)cc(F)c3)cc2S(N)(=O)=O)c1 [Example 190, N-[4-(4-Cyano-1H-pyrazol-1-yl)-3-sulfamoylphenyl]-2-(3,5-difluorophenyl)acetamide] | 58 | 6.27 |
| N#Cc1cnn(-c2ccc(NC(=O)Cc3cccc(Cl)c3)cc2S(N)(=O)=O)c1 [Example 191, 2-(3-Chlorophenyl)-N-[4-(4-cyano-1H-pyrazol-1-yl)-3-sulfamoylphenyl]acetamide] | 76 | 6.74 |
| N#Cc1cnn(-c2ccc(NC(=O)Cc3ccc(F)cc3)cc2S(N)(=O)=O)c1 [Example 192, N-[4-(4-Cyano-1H-pyrazol-1-yl)-3-sulfamoylphenyl]-2-(4-fluorophenyl)acetamide] | 69 | 6.24 |
| N#Cc1cnn(-c2ccc(NC(=O)Cc3ccccc3O)cc2S(N)(=O)=O)c1 [Example 193, N-[4-(4-Cyano-1H-pyrazol-1-yl)-3-sulfamoylphenyl]-2-(2-hydroxyphenyl)acetamide] | 84 | 6.37 |
